This note sets out measurements from patent publication US11951108B2, “Combination therapy for treating cancer” (Epizyme, Inc., priority 2016, dated 2024).

Data set [1] relates to BT-20. The experiment in a line: In vitro combination study, breast cancer cell line BT-20. To be noted: ER/PR −/−, HER2 −, 7 day pre-treatment + 6 day co-treatment.
Data set [2] concerns MDA-MB-231. The experiment in a line: In vitro combination study, breast cancer cell line MDA-MB-231. To be noted: ER/PR −/−, HER2 −, 7 day pre-treatment + 6 day co-treatment.
Data set [3] deals with COV504.
Data set [4] concerns COV362. Briefly: In vitro combination study, ovarian cancer cell line COV362. To be noted: COV362; 4+3 model.
Data set [5] deals with HCC1187. Briefly: In vitro combination study, breast cancer cell line HCC1187. The settings on record: ER/PR −/−, HER2 −, 7 day pre-treatment + 6 day co-treatment.
The test system of data set [6] is ES-2. The experiment in a line: In vitro combination study, ovarian cancer cell line ES-2. The settings on record: 4+3 model.
Data set [7] deals with OVMANA.
For data set [8], the system named is SUM52PE. The experiment in a line: In vitro combination study, breast cancer cell line SUM52PE. The settings on record: ER/PR −/−, HER2 −, 7 day pre-treatment + 6 day co-treatment.
In data set [9] the test system is OVISE.
The subject of data set [10] is MDA-MB-175VII. The experiment in a line: In vitro combination study, breast cancer cell line MDA-MB-175VII. To be noted: ER/PR +/+, HER2 +, 7 day pre-treatment + 6 day co-treatment.
Data set [11] has as its system OVSAHO. Briefly: In vitro combination study, ovarian cancer cell line OVSAHO. The settings on record: 4+3 model.
Data set [12] relates to ZR-75-1.
For data set [13], the system named is HCC1937. The experiment in a line: In vitro combination study, breast cancer cell line HCC1937. To be noted: ER/PR −/−, HER2 +, 7 day pre-treatment + 6 day co-treatment.
Data set [14] concerns TOV112D.
The test system of data set [15] is COV644*. Briefly: In vitro combination study, ovarian cancer cell line COV644. The settings on record: COV644*; 7+3 model.
Data set [16] deals with SNU840.
For data set [17], the system named is HCC1143.
Data set [18] concerns BT474. The experiment in a line: In vitro combination study, breast cancer cell line BT474. To be noted: ER/PR +/+, HER2 +, 7 day pre-treatment + 6 day co-treatment.
Data set [19] deals with DU4475.

Consider `CN(Cc1cnc2nc(N)nc(N)c2n1)c1ccc(C(=O)N[C@@H](CCC(=O)O)C(=O)O)cc1` [Methotrexate], for which the “Synergy or antagonism of second agent with tazemetostat (IC50 shift of second agent)” value was “C (Synergy > 2× IC50 shift)” in [1]; “A (Antagonism)” in data set [2]; “A (key: B: Synergy > 4× IC50 shift; Synergy > 2× IC50 shift; No Effect; Antagonism; X: Not Tested)” in data set [3]; “A (Antagonism)” in [4]; “A (Antagonism)” in data set [5]; “A (Antagonism)” in data set [6]. The “Synergy or antagonism of second agent with tazemetostat (IC50 shift of second agent)” value in data set [7] is recorded as “A (key: B: Synergy > 4× IC50 shift; Synergy > 2× IC50 shift; No Effect; Antagonism; X: Not Tested)”; in data set [8], “A (Antagonism)”; in [9], “A (key: B: Synergy > 4× IC50 shift; Synergy > 2× IC50 shift; No Effect; Antagonism; X: Not Tested)”; in data set [10] it was “A (Antagonism)”; in [11], “A (Antagonism)”; in [12] it was “A (key: B: Synergy > 4× IC50 shift; Synergy > 2× IC50 shift; No Effect; Antagonism; X: Not Tested)”. In addition, the “Synergy or antagonism of second agent with tazemetostat (IC50 shift of second agent)” value in data set [13] is given as “A (Antagonism)”; in data set [14], “A (key: B: Synergy > 4× IC50 shift; Synergy > 2× IC50 shift; No Effect; Antagonism; X: Not Tested)”; in data set [15], “A (Antagonism)”; in data set [16], “A (key: B: Synergy > 4× IC50 shift; Synergy > 2× IC50 shift; No Effect; Antagonism; X: Not Tested)”; in data set [17], “A (key: B: Synergy > 4× IC50 shift; Synergy > 2× IC50 shift; No Effect; Antagonism; X: Not Tested)”; in [18] it was “A (Antagonism)”. The “Synergy or antagonism of second agent with tazemetostat (IC50 shift of second agent)” value in [19] is “A (key: B: Synergy > 4× IC50 shift; Synergy > 2× IC50 shift; No Effect; Antagonism; X: Not Tested)”.
